# Several values for one entry are separate records, joined by “and”; a condition that tells them apart may be missing. Identical values can stand only once.
# Tests used:
# Rattus norvegicus [1] = species on record: Rattus norvegicus; type: functional; conditions: dose 10.2 mg/kg
# Rattus norvegicus [2] = species on record: Rattus norvegicus; type: functional; conditions: dose 10.2 mg/kg; remark: listed apart in the source
# Rattus norvegicus [3] = species on record: Rattus norvegicus; type: functional; conditions: dose 10.2 mg/kg; remark: listed apart in the source
# Rattus norvegicus [4] = species on record: Rattus norvegicus; type: functional; conditions: dose 10.2 mg/kg; remark: listed apart in the source
# Rattus norvegicus [5] = species on record: Rattus norvegicus; type: functional; conditions: dose 10.2 mg/kg; remark: listed apart in the source
# Rattus norvegicus [6] = species on record: Rattus norvegicus; type: functional; conditions: dose 10.2 mg/kg; remark: listed apart in the source
# Rattus norvegicus [7] = species on record: Rattus norvegicus; type: functional; conditions: dose 10.2 mg/kg; remark: listed apart in the source
# Rattus norvegicus [8] = species on record: Rattus norvegicus; type: functional; conditions: dose 10 mg/kg
# Rattus norvegicus [9] = species on record: Rattus norvegicus; type: functional; conditions: dose 10 mg/kg; remark: listed apart in the source
# Rattus norvegicus [10] = species on record: Rattus norvegicus; type: functional; conditions: dose 10 mg/kg; remark: listed apart in the source
# Rattus norvegicus [11] = species on record: Rattus norvegicus; type: functional; conditions: dose 10 mg/kg; remark: listed apart in the source
# Rattus norvegicus [12] = species on record: Rattus norvegicus; type: functional; conditions: dose 10 mg/kg; remark: listed apart in the source
# Rattus norvegicus [13] = species on record: Rattus norvegicus; type: functional; conditions: dose 10 mg/kg; remark: listed apart in the source
# Rattus norvegicus [14] = species on record: Rattus norvegicus; type: functional; conditions: dose 10 mg/kg; remark: listed apart in the source
# Rattus norvegicus [15] = species on record: Rattus norvegicus; type: functional; conditions: dose 11.5 mg/kg
# Rattus norvegicus [16] = species on record: Rattus norvegicus; type: functional; conditions: dose 11.5 mg/kg; remark: listed apart in the source
# Rattus norvegicus [17] = species on record: Rattus norvegicus; type: functional; conditions: dose 11.5 mg/kg; remark: listed apart in the source
# Rattus norvegicus [18] = species on record: Rattus norvegicus; type: functional; conditions: dose 11.5 mg/kg; remark: listed apart in the source
# Rattus norvegicus [19] = species on record: Rattus norvegicus; type: functional; conditions: dose 11.5 mg/kg; remark: listed apart in the source
# Rattus norvegicus [20] = species on record: Rattus norvegicus; type: functional; conditions: dose 11.5 mg/kg; remark: listed apart in the source
# Rattus norvegicus [21] = species on record: Rattus norvegicus; type: functional; conditions: dose 11.5 mg/kg; remark: listed apart in the source
# Rattus norvegicus [22] = species on record: Rattus norvegicus; type: functional; conditions: dose 10.1 mg/kg
# Rattus norvegicus [23] = species on record: Rattus norvegicus; type: functional; conditions: dose 10.1 mg/kg; remark: listed apart in the source
# Rattus norvegicus [24] = species on record: Rattus norvegicus; type: functional; conditions: dose 10.1 mg/kg; remark: listed apart in the source
# Rattus norvegicus [25] = species on record: Rattus norvegicus; type: functional; conditions: dose 10.1 mg/kg; remark: listed apart in the source
# Rattus norvegicus [26] = species on record: Rattus norvegicus; type: functional; conditions: dose 10.1 mg/kg; remark: listed apart in the source
# Rattus norvegicus [27] = species on record: Rattus norvegicus; type: functional; conditions: dose 10.1 mg/kg; remark: listed apart in the source
# Rattus norvegicus [28] = species on record: Rattus norvegicus; conditions: Heart right ventricle
# Rattus norvegicus [29] = species on record: Rattus norvegicus; conditions: Ovarian vein
# Rattus norvegicus [30] = species on record: Rattus norvegicus; type: functional; conditions: dose 10.9 mg/kg
# Rattus norvegicus [31] = species on record: Rattus norvegicus; type: functional; conditions: dose 10.9 mg/kg; remark: listed apart in the source
# Rattus norvegicus [32] = species on record: Rattus norvegicus; type: functional; conditions: dose 10.9 mg/kg; remark: listed apart in the source
# Rattus norvegicus [33] = species on record: Rattus norvegicus; type: functional; conditions: dose 10.9 mg/kg; remark: listed apart in the source
# Rattus norvegicus [34] = species on record: Rattus norvegicus; type: functional; conditions: dose 10.9 mg/kg; remark: listed apart in the source
# Rattus norvegicus [35] = species on record: Rattus norvegicus; type: functional; conditions: dose 10.9 mg/kg; remark: listed apart in the source
# Rattus norvegicus [36] = species on record: Rattus norvegicus; type: functional; conditions: dose 10.9 mg/kg; remark: listed apart in the source
# Rattus norvegicus [37] = species on record: Rattus norvegicus; conditions: Heart right ventricle; remark: listed apart in the source
# Rattus norvegicus [38] = species on record: Rattus norvegicus; conditions: Heart right ventricle; remark: listed apart in the source
# Rattus norvegicus [39] = species on record: Rattus norvegicus; conditions: Heart right ventricle; remark: listed apart in the source
# Rattus norvegicus [40] = species on record: Rattus norvegicus; conditions: Heart right ventricle; remark: listed apart in the source
# Aromatase = target: T1, Aromatase (Rattus norvegicus, UniProt P22443)
# T1 sequence (P22443 whole entry): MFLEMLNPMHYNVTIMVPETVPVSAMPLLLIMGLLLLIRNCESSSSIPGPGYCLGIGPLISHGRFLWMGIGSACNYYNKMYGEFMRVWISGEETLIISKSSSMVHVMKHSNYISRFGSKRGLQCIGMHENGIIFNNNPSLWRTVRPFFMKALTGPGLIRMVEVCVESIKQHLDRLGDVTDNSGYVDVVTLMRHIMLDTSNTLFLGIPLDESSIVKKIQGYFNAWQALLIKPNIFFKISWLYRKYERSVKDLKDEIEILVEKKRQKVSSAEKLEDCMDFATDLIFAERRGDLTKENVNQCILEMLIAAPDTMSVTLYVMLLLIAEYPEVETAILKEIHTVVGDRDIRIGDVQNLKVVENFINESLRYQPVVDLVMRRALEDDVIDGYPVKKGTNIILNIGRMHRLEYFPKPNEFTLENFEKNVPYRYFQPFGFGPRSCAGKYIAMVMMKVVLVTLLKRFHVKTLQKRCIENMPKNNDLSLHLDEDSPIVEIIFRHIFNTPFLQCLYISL
# Rattus norvegicus [41] = species on record: Rattus norvegicus; conditions: Heart right ventricle; remark: listed apart in the source
# Rattus norvegicus [42] = species on record: Rattus norvegicus; conditions: Heart right ventricle; remark: listed apart in the source
# Rattus norvegicus [43] = species on record: Rattus norvegicus; conditions: Heart right ventricle; remark: listed apart in the source
# Rattus norvegicus [44] = species on record: Rattus norvegicus; conditions: Heart right ventricle; remark: listed apart in the source
# Rattus norvegicus [45] = species on record: Rattus norvegicus; conditions: Heart right ventricle; remark: listed apart in the source
# Rattus norvegicus [46] = species on record: Rattus norvegicus; conditions: Heart right ventricle; remark: listed apart in the source
# Rattus norvegicus [47] = species on record: Rattus norvegicus; conditions: Heart right ventricle; remark: listed apart in the source
# Rattus norvegicus [48] = species on record: Rattus norvegicus; type: functional; conditions: dose 20 mg/kg
# Rattus norvegicus [49] = species on record: Rattus norvegicus; type: functional; conditions: dose 20 mg/kg; remark: listed apart in the source
# Rattus norvegicus [50] = species on record: Rattus norvegicus; type: functional; conditions: dose 20 mg/kg; remark: listed apart in the source
# Rattus norvegicus [51] = species on record: Rattus norvegicus; type: functional; conditions: dose 20 mg/kg; remark: listed apart in the source
# Rattus norvegicus [52] = species on record: Rattus norvegicus; type: functional; conditions: dose 20 mg/kg; remark: listed apart in the source
# Rattus norvegicus [53] = species on record: Rattus norvegicus; type: functional; conditions: dose 20 mg/kg; remark: listed apart in the source
# Rattus norvegicus [54] = species on record: Rattus norvegicus; type: functional; conditions: dose 20 mg/kg; remark: listed apart in the source
# Rattus norvegicus [55] = species on record: Rattus norvegicus; type: functional; conditions: dose 11.4 mg/kg
# Rattus norvegicus [56] = species on record: Rattus norvegicus; type: functional
# Rattus norvegicus [57] = species on record: Rattus norvegicus; type: functional; conditions: dose 11.4 mg/kg; remark: listed apart in the source
# Rattus norvegicus [58] = species on record: Rattus norvegicus; type: functional; conditions: dose 11.4 mg/kg; remark: listed apart in the source
# Rattus norvegicus [59] = species on record: Rattus norvegicus; type: functional; conditions: dose 11.4 mg/kg; remark: listed apart in the source
# Rattus norvegicus [60] = species on record: Rattus norvegicus; type: functional; conditions: dose 11.4 mg/kg; remark: listed apart in the source
# Rattus norvegicus [61] = species on record: Rattus norvegicus; type: functional; conditions: dose 11.4 mg/kg; remark: listed apart in the source
# Rattus norvegicus [62] = species on record: Rattus norvegicus; conditions: Heart right ventricle; remark: listed apart in the source
compound,measurement,setting,value
CCC(=O)O[C@H]1CC[C@H]2[C@@H]3CCC4=CC(=O)CC[C@]4(C)[C@H]3CC[C@]12C.O=C1c2ccccc2CCC1Cc1ccncc1,Tumors with CR,Rattus norvegicus [1],13%
same,Tumors with CR,Rattus norvegicus [2],10%
same,No. of tumors,Rattus norvegicus [3],8
same,Tumors with CR,Rattus norvegicus [4],32%
same,No. of tumors,Rattus norvegicus [5],31
same,Tumors with CR,Rattus norvegicus [6],45%
same,Change of tumor area,Rattus norvegicus [7],41%
CCC(=O)O[C@H]1CC[C@H]2[C@@H]3CCC4=CC(=O)CC[C@]4(C)[C@H]3CC[C@]12C.CCC1(c2ccc(N)cc2)CCC(=O)NC1=O,Tumors with CR,Rattus norvegicus [8],23%
same,Tumors with CR,Rattus norvegicus [9],54%
same,No. of tumors,Rattus norvegicus [10],7
same,Tumors with CR,Rattus norvegicus [11],6%
same,Change of tumor area,Rattus norvegicus [12],4%
same,Tumors with CR,Rattus norvegicus [13],17%
same,No. of tumors,Rattus norvegicus [14],35
CCC(=O)O[C@H]1CC[C@H]2[C@@H]3CCC4=CC(=O)CC[C@]4(C)[C@H]3CC[C@]12C.COc1cccc2c1CCC(Cc1ccncc1)C2=O,Change of tumor area,Rattus norvegicus [15],50%
same,Tumors with CR,Rattus norvegicus [16],24%
same,Tumors with CR,Rattus norvegicus [17],35%
same,Tumors with CR,Rattus norvegicus [18],12%
same,Tumors with CR,Rattus norvegicus [19],29%
same,No. of tumors,Rattus norvegicus [20],11
same,No. of tumors,Rattus norvegicus [21],34
CCC(=O)O[C@H]1CC[C@H]2[C@@H]3CCC4=CC(=O)CC[C@]4(C)[C@H]3CC[C@]12C.O=C1/C(=C/c2ccncc2)CCc2ccccc21,Tumors with CR,Rattus norvegicus [22],20%
same,No. of tumors,Rattus norvegicus [23],30
same,Tumors with CR,Rattus norvegicus [24],40%
same,Tumors with CR,Rattus norvegicus [25],20%
same,Change of tumor area,Rattus norvegicus [12],2%
same,No. of tumors,Rattus norvegicus [26],6
same,Tumors with CR,Rattus norvegicus [27],20%
O=C1c2ccccc2CCC1Cc1ccncc1 (configuration not stated),Plasma-E2 concentration,Rattus norvegicus [28],717 pg/mL
same,Plasma-E2 concentration,Rattus norvegicus [29],3700 pg/mL
CCC(=O)O[C@H]1CC[C@H]2[C@@H]3CCC4=CC(=O)CC[C@]4(C)[C@H]3CC[C@]12C.O=C1c2cccc(O)c2CCC1Cc1ccncc1,No. of tumors,Rattus norvegicus [30],3
same,Tumors with CR,Rattus norvegicus [31],27%
same,Tumors with CR,Rattus norvegicus [32],21%
same,Tumors with CR,Rattus norvegicus [33],45%
same,No. of tumors,Rattus norvegicus [34],33
same,Tumors with CR,Rattus norvegicus [35],6%
same,Change of tumor area,Rattus norvegicus [36],61%
COc1cccc2c1CCC(Cc1ccncc1)C2=O (configuration not stated),Plasma-E2 concentration,Rattus norvegicus [37],1460 pg/mL and 902 pg/mL
same,Plasma-E2 concentration,Rattus norvegicus [38],894 pg/mL
same,Plasma-E2 concentration,Rattus norvegicus [39],639 pg/mL
same,Plasma-E2 concentration,Rattus norvegicus [40],882 pg/mL
same,IC50,Aromatase,8 µM
same,Plasma-E2 concentration,Rattus norvegicus [41],851 pg/mL
same,Plasma-E2 concentration,Rattus norvegicus [42],576 pg/mL
same,Plasma-E2 concentration,Rattus norvegicus [29],3950 pg/mL
same,Plasma-E2 concentration,Rattus norvegicus [43],458 pg/mL
same,Plasma-E2 concentration,Rattus norvegicus [44],542 pg/mL
same,Plasma-E2 concentration,Rattus norvegicus [45],1040 pg/mL
same,Plasma-E2 concentration,Rattus norvegicus [46],1250 pg/mL
same,Plasma-E2 concentration,Rattus norvegicus [47],990 pg/mL
O=C1c2cccc(O)c2CCC1Cc1ccncc1 (stereo in doubt; 12),IC50,Aromatase,2 µM
same,Plasma-E2 concentration,Rattus norvegicus [29],3700 pg/mL
same,Plasma-E2 concentration,Rattus norvegicus [44],472 pg/mL
CCC(=O)O[C@H]1CC[C@H]2[C@@H]3CCC4=CC(=O)CC[C@]4(C)[C@H]3CC[C@]12C [TESTOSTERONE PROPIONATE],Tumors with CR,Rattus norvegicus [48],25%
same,No. of tumors,Rattus norvegicus [49],12
same,Change of tumor area,Rattus norvegicus [50],141%
same,Tumors with CR,Rattus norvegicus [51],19%
same,Tumors with CR,Rattus norvegicus [52],19%
same,No. of tumors,Rattus norvegicus [53],36
same,Tumors with CR,Rattus norvegicus [54],36%
CCC(=O)O[C@H]1CC[C@H]2[C@@H]3CCC4=CC(=O)CC[C@]4(C)[C@H]3CC[C@]12C.COc1cccc2c1CC/C(=C\c1ccncc1)C2=O,Tumors with CR,Rattus norvegicus [55],29%
same,Tumors with CR,Rattus norvegicus [56],11%
same,Tumors with CR,Rattus norvegicus [57],11%
same,No. of tumors,Rattus norvegicus [58],9
same,No. of tumors,Rattus norvegicus [59],28
same,Tumors with CR,Rattus norvegicus [60],50%
same,Change of tumor area,Rattus norvegicus [61],115%
CCC1(c2ccc(N)cc2)CCC(=O)NC1=O (configuration not stated),Plasma-E2 concentration,Rattus norvegicus [37],843 pg/mL and 500 pg/mL
same,Plasma-E2 concentration,Rattus norvegicus [62],164 pg/mL
same,Plasma-E2 concentration,Rattus norvegicus [42],272 pg/mL
O=C1/C(=C/c2ccncc2)CCc2c(O)cccc21,Plasma-E2 concentration,Rattus norvegicus [29],4040 pg/mL
same,Plasma-E2 concentration,Rattus norvegicus [44],524 pg/mL

# Source: ChEMBL document CHEMBL1125863, “New aromatase inhibitors. Synthesis and biological activity of pyridyl-substituted tetralone derivatives” (J Med Chem, 1991)
